Columns and labels:
[1] = molecular target: T1, mGluR5 (Rattus norvegicus, UniProt P31424); test: Calcium mobilization (intracellular calcium levels) in primary cultures of rat cortical astrocytes; format: cell-based
Method: The experiments have been performed on primary cultures of rat cortical astrocytes. These cells express mGlu5Rs ([Zhang et al., 2005]).
Primary cultures of cerebral cortical astrocytes were obtained from newborn rats (1 or 2 days old). Briefly, cerebral cortices were removed and dissociated by mild trypsinization at 37°C, followed by mechanical trituration to obtain single cells. Cells were suspended in the culture medium [Gibco® DMEM, 5% inactivated fetal bovine serum (Thermo-Fisher Scientific, Waltham, MA, United States), 100 IU/ml penicillin, and 100 μg/ml streptomycin (all from Sigma-Aldrich, Milan, Italy)] and then seeded in 75-cm^2 flasks at a density of 3 × 10^6 cells/flask. The cells were incubated at 37°C in a humidified atmosphere, 5% CO2/95% air. The culture medium was replaced after 24 h and again twice weekly until astrocytes were grown to form a monolayer firmly attached to the bottom of the flask (12 or 14 days after dissection). At cell confluence, flasks were vigorously shaken to separate astrocytes (which remained adherent in the bottom of the flasks) from microglia and oligodendrocytes (which floated on the supernatant) ([Tomasini et al., 2015]). Collected astrocytes were counted and then plated in poly-L-lysine at a density of 50,000 cells/well or 96-well plates black, clear bottom plates (Corning®; Sigma-Aldrich, Milan, Italy).
Subsequently 100 μl/well of the same buffer were added for 10 min. […] After placing cell culture and compound plates into the FlexStation II (Molecular Devices, Sunnyvale, CA, United States), the on-line additions were carried out in a volume of 50 μl /well and fluorescence changes were continuously measured for 2 min at 37°C.
(§1) EC50 values were calculated using non-linear regression [curve fit, log(agonist) vs. response, variable slope, four parameters]. Statistical analysis (F-test) has been performed by using GraphPad Prism 6.0 (GraphPad Software Inc., San Diego, CA, United States). Statistical differences between group means for EC50 values were also assessed by ANOVA followed by Tukey’s multiple comparisons test. Data are reported as mean ± SEM of three independent experiments. A p-value < 0.05 was considered statistically significant.

[2] = system: dopamine, serotonin, GABA, ionotropic glutamate receptors, dopamine and serotonin reuptake systems; design: method as in Loche et al., 2012; settings: ref Loche et al., 2012; cited from earlier work
[3] = system: alcohol intake; design: method as in Loche et al., 2012; Ferraro et al., 2013; settings: preclinical studies; ref Loche et al., 2012; Ferraro et al., 2013; cited from earlier work
[4] = system: hippocampal neurons; design: method as in Tomasini et al., 2016; settings: hippocampal neurons exposed to 0.1 to 10 μM; ref Tomasini et al., 2016; cited from earlier work
[5] = molecular target: T1, mGluR5; test: Inositol phosphate (phosphatidylinositol) turnover in rat hippocampus slices; format: cell-based; settings: for Effect on L-quisqualate concentration-response curve, phosphatidylinositol turnover / Effect on CHPG (10 mM)-induced increase in phosphatidylinositol turnover / Effect on glutamate concentration-response curve, phosphatidylinositol turnover: rat hippocampus slices
Method: The experiments have been performed on rat hippocampus slices. This preparation expresses mGlu5Rs ([Zhang et al., 2005]; [Purgert et al., 2014]).
On the day of the experiment, the animals were euthanized, their brain promptly isolated and 400 μm thick slices (15–20 mg each) were obtained from both the left and right hippocampi, by using a McIlwain tissue Chopper fresh tissue. The tissue was then allowed to equilibrate for 20 min at room temperature in Krebs’ solution (composition in mM: NaCl 118; KC1 4.4; CaC1_2 1.2; MgS0_4 1.2; KH2P0_4 1.2; NaHC0_3 25; glucose 10) and gassed with a mixture of 95% O2 plus 5% CO2 ([Ferraro et al., 2011]).
Slices were placed in test tubes containing 0.3 ml of oxygenated Krebs solution with myo-[^3H]inositol 0.3 μM (NEN, Boston, MA, United States). […] The reaction was stopped by washing each slice in ice cold Krebs solution containing LiCl 10 mM and by plunging it in 0.94 ml of chloroform-methanol (1:2 v/v). After 10 min, 310 μl of chloroform and 310 μl of water were added and the tubes were shaken for 20 min. The separation of [^3H]inositol phosphates was performed by ion-exchange chromatography on AG 1-X8 resin, 200–400 mesh (Bio-Rad, Hercules, CA, United States), using different elution solutions. The collected IP3-containing fraction was mixed with Safety-Solve cocktail (RPI, Mount Prospect, IL, United States) and the radioactivity was measured by scintillation counting.
as §1

[6] = ref Haass-Koffler et al., cited from earlier work
[7] = molecular target: T1, mGluR5; test: pCREB (Ser133) levels in primary cultures of rat cortical neurons; format: cell-based; settings: rat cortical neurons
Method: The experiments have been performed on primary cultures of rat cortical neurons. These cells express mGlu5Rs ([Koga et al., 2010]).
Primary cultures of cerebral cortical neurons were prepared from 1-day-old rats. Cortices free of meninges were dissociated in 0.025% (w/v) trypsin at 37°C followed by mechanical repeated gentle pipetting through wide- and narrow-bore fire-polished Pasteur pipettes in culture medium [Neurobasal medium (Gibco, Grand Island, NY, United States) supplemented with 0.1 mM glutamine (Sigma-Aldrich, Milan, Italy), 10 μg/ml gentamicin (Sigma-Aldrich, Milan, Italy) and 2% B-27® Supplement (50X), serum free (Gibco, Grand Island, NY, United States)]. Cells were counted and then plated on poly-L-lysine (5 μg/ml)-coated multiwells. Cytosine arabinoside (10 μM; Sigma-Aldrich, Milan, Italy) was added within 24 h of plating to prevent glial cell proliferation. After 8 days of in vitro incubation (days in vitro: DIV), cultures were used for experiments.
pCREB measurement was performed with the pCREB (Ser133) Assay kit (PerkinElmer Italy, Milan). Briefly, cortical neurons were seeded in 96 well tissue culture plates at a density of 4,000 cells/well and incubated at 37°C overnight. […] The lysates were transferred to a 96-well ½AreaPlate^TM for the assay. The Acceptor Mix was added for 1 h at room temperature and the Donor mix was added to wells under subdue light and incubate for 1 h at room temperature. At the end of this period, raw “AlphaScreen Signal counts” were measured by an Alpha Technology®-compatible plate reader, using standard AlphaLISA settings (excitation 680 nm, emission 615 nm).
as §1

T1 sequence (P31424 21-875 limits assumed): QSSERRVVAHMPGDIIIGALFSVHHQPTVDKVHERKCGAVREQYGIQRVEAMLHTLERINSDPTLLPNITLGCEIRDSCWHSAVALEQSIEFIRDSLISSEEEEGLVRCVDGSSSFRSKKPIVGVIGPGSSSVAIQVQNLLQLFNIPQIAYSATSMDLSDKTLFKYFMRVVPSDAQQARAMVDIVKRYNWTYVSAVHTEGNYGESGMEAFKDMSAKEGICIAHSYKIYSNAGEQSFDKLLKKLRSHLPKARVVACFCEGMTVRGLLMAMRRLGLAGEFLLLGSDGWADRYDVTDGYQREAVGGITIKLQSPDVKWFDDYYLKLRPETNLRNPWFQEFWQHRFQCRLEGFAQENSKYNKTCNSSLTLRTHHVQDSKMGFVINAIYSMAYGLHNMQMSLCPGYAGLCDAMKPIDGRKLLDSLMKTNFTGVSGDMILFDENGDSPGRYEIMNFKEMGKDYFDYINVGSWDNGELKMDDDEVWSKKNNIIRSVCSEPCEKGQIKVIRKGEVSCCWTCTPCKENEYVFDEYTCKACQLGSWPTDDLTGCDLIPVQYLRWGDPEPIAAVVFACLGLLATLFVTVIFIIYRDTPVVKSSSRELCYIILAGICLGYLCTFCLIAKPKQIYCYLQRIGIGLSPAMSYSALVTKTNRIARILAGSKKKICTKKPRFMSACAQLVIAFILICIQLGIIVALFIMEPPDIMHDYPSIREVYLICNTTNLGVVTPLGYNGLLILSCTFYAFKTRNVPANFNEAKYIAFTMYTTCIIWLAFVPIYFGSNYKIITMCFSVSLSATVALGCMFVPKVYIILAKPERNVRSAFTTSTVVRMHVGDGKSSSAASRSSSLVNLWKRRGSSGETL

With `COCCCC(=O)NCc1ccc(C(F)(F)F)cc1` [GET73, N-[4-(trifluoromethyl)benzyl]-4-methoxybutyramide] as the compound, how does the “Effect on CHPG concentration-response curve, intracellular calcium” value ([1]; GET73 0.1 nM–10 μM) read?
Its value is “significant rightward shift”.

What about the “Effect on L-quisqualate concentration-response curve, intracellular calcium” value ([1]; GET73 0.1 nM–10 μM) of the same compound?
The value was “failed to significantly modify”.

And the “Effect on glutamate concentration-response curve, intracellular calcium” value ([1]; GET73 10 nM–10 μM)?
Its value is “significant rightward shift”.

And the “Effect on glutamate concentration-response curve, intracellular calcium” value ([1]; GET73 0.1 and 1 nM)?
Its value is “ineffective”.

And the “Agonistic effect on intracellular calcium levels (calcium transient)” value ([1]; GET73 alone, 0.1 nM–10 μM)?
The value was “ineffective”.

What about the “Affinity for a series of biological targets” value [2] of the same compound?
The value was “did not show affinity”.

What about the Alcohol intake [3] of the same compound?
The Alcohol intake was “reduce alcohol intake”.

And the Neurotoxicity [4]?
Its Neurotoxicity is “no signs of neurotoxicity”.

What about the “Effect on L-quisqualate concentration-response curve, phosphatidylinositol turnover” value ([5]; GET73 10 nM–10 μM) of the same compound?
Its value is “significant rightward shift”.

What about the “Effect on CHPG (10 mM)-induced increase in phosphatidylinositol turnover” value ([5]; GET73 100 nM, 1 μM and 10 μM) of the same compound?
The value was “significant reduction”.

And the “Effect on glutamate concentration-response curve, phosphatidylinositol turnover” value ([5]; GET73 100 nM–10 μM)?
Its value is “significant rightward shift”.

What about the “Effect on L-quisqualate concentration-response curve, phosphatidylinositol turnover” value ([5]; GET73 0.1 and 1 nM) of the same compound?
The value was “ineffective”.

What about the “Effect on glutamate concentration-response curve, phosphatidylinositol turnover” value ([5]; GET73 0.1 and 1 nM) of the same compound?
Its value is “ineffective”.

What about the “Effect on CHPG (10 mM)-induced increase in phosphatidylinositol turnover” value ([5]; GET73 0.1–10 nM) of the same compound?
Its value is “ineffective”.

What about the “Agonistic effect on phosphatidylinositol turnover” value ([5]; GET73 alone, 0.1 nM–100 μM, rat hippocampal slices) of the same compound?
Its value is “failed to modify”.

And the Safety and tolerability ([6]; Phase 1 clinical studies, healthy volunteers and alcohol-dependent patients, 2017a,b)?
The Safety and tolerability was “safe and well-tolerated”.

And the CNS side effects ([6]; two Phase I clinical trials in healthy volunteers and ongoing Phase 1b/2a study in alcohol dependent subjects, 2017a)?
The CNS side effects was “did not induce any CNS side effects”.

And the “Effect on glutamate concentration-response curve, pCREB” value ([7]; GET73 10 nM–10 μM)?
The value was “significant rightward shift”.

And the “Effect on CHPG concentration-response curve, pCREB” value ([7]; GET73 100 nM–10 μM)?
The value was “significant rightward shift”.

And the “Effect on glutamate concentration-response curve, pCREB” value ([7]; GET73 0.1 and 1 nM)?
Its value is “ineffective”.

And the “Effect on CHPG concentration-response curve, pCREB” value ([7]; GET73 0.1–10 nM)?
Its value is “ineffective”.

What about the “Effect on L-quisqualate concentration-response curve, pCREB” value ([7]; GET73 0.1–100 nM) of the same compound?
The value was “ineffective”.

And the “Effect on L-quisqualate concentration-response curve, pCREB” value ([7]; GET73 1 and 10 μM)?
The value was “significant rightward shift”.

And the “Agonistic effect on pCREB levels” value ([7]; GET73 alone, 0.1 nM–10 μM)?
The value was “ineffective”.
